# Literature values as cited in patent publication US12611407B2, “Gastro-resistant high-strength formulation containing posaconazole” (Alfred E. Tiefenbacher (GmbH & Co. KG), priority 2020, dated 2026).
# How the values were obtained:
# [1] = not given; remark: listed apart in the source
aqueous solubility,water solubility compared with form I,stability of the crystalline form ([1]; normal storage conditions or specific stress conditions),Structure (SMILES),stability in an aqueous suspension compared with form I ([1]; aqueous suspension)
low aqueous solubility,,,CC[C@@H]([C@H](C)O)n1ncn(-c2ccc(N3CCN(c4ccc(OC[C@@H]5CO[C@@](Cn6cncn6)(c6ccc(F)cc6F)C5)cc4)CC3)cc2)c1=O [Posaconazole],
,better water solubility,,"CC[C@@H]([C@H](C)O)n1ncn(-c2ccc(N3CCN(c4ccc(OC[C@@H]5CO[C@@](Cn6cncn6)(c6ccc(F)cc6F)C5)cc4)CC3)cc2)c1=O [form IV, posaconazole]",better stability in an aqueous suspension
,better water solubility,as stable as form I,"CC[C@@H]([C@H](C)O)n1ncn(-c2ccc(N3CCN(c4ccc(OC[C@@H]5CO[C@@](Cn6cncn6)(c6ccc(F)cc6F)C5)cc4)CC3)cc2)c1=O [form Y, posaconazole]",
